Reference: patent publication US7186831B2, “5-halo-2-alkyl[1,2,4]triazolo[1,5-a]pyrimidin-7-amines” (priority 2001, dated 2007)

Key:
[1] = system: Puccinia recondita; test: Puccinia test (wheat)/protective; type: in vivo; details: protective, application rate 500 g/ha, evaluation 10 days after inoculation
Protocol: Puccinia Test (Wheat)/Protective • Solvent: 25 parts by weight of N,N-dimethylacetamide • Emulsifier: 0.6 part by weight of alkylaryl polyglycol ether To produce a suitable preparation of active compound, 1 part by weight of active compound is mixed with the stated amounts of solvent and emulsifier and the concentrate is diluted with water to the desired concentration. To test for protective activity, the young plants are sprayed with the active compound preparation at the application rate indicated. After the spray coating has dried on, the plants are sprayed with a conidia suspension of Puccinia recondita. The plants spend 48 hours at 20° C. and 100% relative humidity in an incubation cabin. The plants are then placed in a greenhouse at a temperature of about 20° C. and a relative humidity of 80% in order to promote the development of rust pustules. Evaluation is made 10 days after inoculation. 0% denotes an efficacy corresponding to that of the control, while an efficacy of 100% denotes that no infestation is observed.

[2] = log P by HPLC; type: physicochemical; details: HPLC, gradient method, acetonitrile/0.1% aqueous phosphoric acid; EEC directive 79/831 Annex V. A8
[3] = system: Sphaerotheca fuliginea; test: Spaerotheca test (cucumber)/protective; type: in vivo; details: protective, application rate 750 g/ha, evaluation 7 days after inoculation
Protocol: Spaerotheca Test (Cucumber)/Protective • Solvent: 49 parts by weight of N,N-dimethylformamide • Emulsifier: 1 part by weight of alkylaryl polyglycol ether To produce a suitable preparation of active compound, 1 part by weight of active compound is mixed with the stated amounts of solvent and emulsifier and the concentrate is diluted with water to the desired concentration. To test for protective activity, the young cucumber plants are sprayed with the active compound preparation at the application rate indicated. 1 day after treatment, the plants are inoculated with a spore suspension of Sphaerotheca fuliginea. The plants are then placed in a greenhouse at a temperature of 23° C. and at a relative humidity of 70%. Evaluation is made 7 days after inoculation. 0% denotes an efficacy corresponding to that of the control, while an efficacy of 100% denotes that no infestation is observed.

[4] = system: Podosphaera leucotricha; test: Podosphaera test (apple)/protective; type: in vivo; details: protective, application rate 100 g/ha, evaluation 10 days after inoculation
Protocol: Podosphaera Test (Apple)/Protective • Solvent: 24.5 parts by weight of acetone • 24.5 parts by weight of dimethylacetamide • Emulsifier: 1 part by weight of alkylaryl polyglycol ether
To produce a suitable preparation of active compound, 1 part by weight of active compound is mixed with the stated amounts of solvent and emulsifier and the concentrate is diluted with water to the desired concentration.
To test for protective activity, the young plants are sprayed with the active compound preparation at the application rate indicated. After the spray coating has dried on, the plants are inoculated with an aqueous spore suspension of the apple mildew causative organism Podosphaera leucotricha. The plants are then placed in a greenhouse at about 23° C. and at a relative humidity of about 70%.
Evaluation is made 10 days after inoculation. 0% denotes an efficacy corresponding to that of the control, while an efficacy of 100% denotes that no infestation is observed.

| SMILES | logP [2] | other results |
| --- | --- | --- |
| C[C@H](Nc1c(-c2c(F)cc(F)cc2F)c(Cl)nc2nc(C(F)(F)F)nn12)C(F)(F)F [Example 3] |  | Efficacy in % [1]: 100%; chromatographic logP [2]: 3.94; Efficacy in % [3]: 93% |
| CCc1nc2nc(Cl)c(-c3c(F)cc(F)cc3F)c(N[C@@H](C)C(F)(F)F)n2n1 [Example 4] |  | chromatographic logP [2]: 3.39; Efficacy in % [3]: 93% |
| Fc1cc(F)c(-c2c(Cl)nc3nc(C(F)(F)F)nn3c2NCCC(F)(F)F)c(F)c1 [Example 7] |  | Efficacy in % [4]: 100%; chromatographic logP [2]: 3.76; Efficacy in % [3]: 100% |
| Fc1cc(F)c(-c2c(Cl)nc3nc(C(F)(F)F)nn3c2NCC(F)(F)F)c(F)c1 [Example 8] |  | Efficacy in % [4]: 100%; chromatographic logP [2]: 3.64; Efficacy in % [3]: 100% |
| CC(C)=NN(CC(C)C)c1c(-c2c(F)cccc2F)c(Cl)nc2nc(C3CC3)nn12 [compound 787] | 4.21 |  |
| Cc1nc2nc(Cl)c(-c3ccc(Cl)cc3Cl)c(NC(C)C(C)C)n2n1 (centres unmarked) [compound 788] | 4.06 |  |
| Cc1nc2nc(Cl)c(-c3ccc(Cl)cc3Cl)c(NCC(C)C)n2n1 [compound 789] | 3.68 |  |
| CC(C)CNc1c(-c2ccc(Cl)cc2Cl)c(Cl)nc2nc(C3CC3)nn12 [compound 790] | 4.3 |  |
| CC(C)CN(N)c1c(-c2c(F)cccc2Cl)c(Cl)nc2nc(C3CC3)nn12 [compound 791] | 3.74 |  |
| CC(=O)NC1CCN(c2c(-c3ccc(F)cc3F)c(Cl)nc3nc(C(F)(F)F)nn23)C1 (centres unmarked) [compound 793] | 2.56 |  |
| CN(C)C1CCN(c2c(-c3ccc(F)cc3F)c(Cl)nc3nc(C(F)(F)F)nn23)C1 (centres unmarked) [compound 795] | 1.67 |  |
| Fc1ccc(-c2c(Cl)nc3nc(C(F)(F)F)nn3c2N2CCC3(CC2)OCCO3)c(F)c1 [compound 796] | 3.8 |  |
| CC1CC(C)CN(c2c(-c3ccc(F)cc3F)c(Cl)nc3nc(C(F)(F)F)nn23)C1 (centres unmarked) [compound 797] | 5.18 |  |
| CC1CCN(c2c(-c3ccc(F)cc3F)c(Cl)nc3nc(C(F)(F)F)nn23)CC1 [compound 798] | 4.8 |  |
| OC1CCCN(c2c(-c3ccc(F)cc3F)c(Cl)nc3nc(C(F)(F)F)nn23)C1 (centres unmarked) [compound 799] | 3.07 |  |
| CC1(C)CCN(c2c(-c3ccc(F)cc3F)c(Cl)nc3nc(C(F)(F)F)nn23)CC1 [compound 800] | 5.03 |  |
| CCC1=CCN(c2c(-c3ccc(F)cc3F)c(Cl)nc3nc(C(F)(F)F)nn23)CC1 [compound 801] | 4.95 |  |

| SMILES | logP [2] | other results |
| --- | --- | --- |
| CC1=CCCN(c2c(-c3ccc(F)cc3F)c(Cl)nc3nc(C(F)(F)F)nn23)C1 [compound 802] | 4.55 |  |
| COC(=O)C1CCN(c2c(-c3ccc(F)cc3F)c(Cl)nc3nc(C(F)(F)F)nn23)CC1 [compound 803] | 3.81 |  |
| COC(=O)C1CCCCN1c1c(-c2ccc(F)cc2F)c(Cl)nc2nc(C(F)(F)F)nn12 (centres unmarked) [compound 804] | 4.32 |  |
| Fc1ccc(-c2c(Cl)nc3nc(C(F)(F)F)nn3c2N2CCC(C(F)(F)F)CC2)c(F)c1 [compound 805] | 4.43 |  |
| CC(=O)NC1CCN(c2c(-c3ccc(F)cc3F)c(Cl)nc3nc(C(F)(F)F)nn23)CC1 [compound 806] | 2.71 |  |
| CN1CCN(c2c(-c3ccc(F)cc3F)c(Cl)nc3nc(C(F)(F)F)nn23)CC1 [compound 807] | 1.65 |  |
| CC1CN(c2c(-c3ccc(F)cc3F)c(Cl)nc3nc(C(F)(F)F)nn23)CC(C)O1 (centres unmarked) [compound 808] | 4.1 |  |
| Fc1ccc(-c2c(Cl)nc3nc(C(F)(F)F)nn3c2N2CCCCC2)c(F)c1 [compound 809] | 4.45 |  |
| Fc1ccc(-c2c(Cl)nc3nc(C(F)(F)F)nn3c2N2CCSCC2)c(F)c1 [compound 810] | 4.04 |  |
| Cc1ccccc1Nc1c(-c2ccc(F)cc2F)c(Cl)nc2nc(C(F)(F)F)nn12 [compound 811] | 3.99 |  |
| Cc1cccc(Nc2c(-c3ccc(F)cc3F)c(Cl)nc3nc(C(F)(F)F)nn23)c1 [compound 812] | 4.04 |  |
| Cc1ccc(Nc2c(-c3ccc(F)cc3F)c(Cl)nc3nc(C(F)(F)F)nn23)cc1 [compound 813] | 4.08 |  |
| Fc1ccc(Nc2c(-c3ccc(F)cc3F)c(Cl)nc3nc(C(F)(F)F)nn23)cc1 [compound 814] | 3.69 |  |
| Fc1ccc(-c2c(Cl)nc3nc(C(F)(F)F)nn3c2N2CCc3ccccc3C2)c(F)c1 [compound 815] | 4.35 |  |
| Cc1nc2nc(Cl)c(-c3ccc(Cl)cc3Cl)c(N(N)CC(C)C)n2n1 [compound 816] | 3.71 |  |
| Cc1nc2nc(Cl)c(-c3ccc(Cl)cc3Cl)c(N3CCCCO3)n2n1 [compound 817] | 3.67 |  |
| CC(C)CC(C)Nc1c(-c2ccc(F)cc2F)c(Cl)nc2nc(C(F)(F)F)nn12 (centres unmarked) [compound 818] | 4.73 |  |
